# Legend:
# [1] = type: in vivo, patient (the inventor)
# Procedure: A series of compositions comprising an amount of copolymer-1 and a local anesthetic were generated in order to provide for a formulation that was substantially free of Site Reactions upon injection. Briefly, the methodology involved titrating amounts of an injectable local anesthetic (bupivacaine, 0.5%) to a solution of copolymer-1 (provided as COPAXONE®, 20 mg injectable syringe). […] This percentage of local anesthetic is well below clinical dosages typically used for skin infiltration for pain control (e.g. 0.25%). The composition was stable for over 30 days both at room temperature and when refrigerated.
# The composition described in Example 1 (0.2 mL of bupivacaine (at 0.5%) added to 1.0 mL COPAXONE®, 20 mg injectable syringe) was used in this Example.
# The inventor, Dr. Robbins, an anesthesiologist and pain management specialist familiar with the use of local anesthetics in procedures such as spinal epidurals, has been diagnosed with multiple sclerosis and has been prescribed COPAXONE® in order to treat the disease. […] Oral pain management (Motrin) and immediate icing of the injection site were ineffective in alleviating the pain associated with the COPAXONE® injection. […]
# [2] = test system: 5-hydroxytryptamine (5-HT) induced plasma extravasation; conditions: concentration of about 0.083%; cited from earlier work
# [3] = test system: experimental autoimmune encephalomyelitis (EAE); conditions: in vivo; cited from earlier work
# [4] = test system: RRMS patients; conditions: 40 mg/mL subcutaneous injection three times a week; cited from earlier work
# [5] = test system: exacerbating-remitting form of multiple sclerosis; conditions: daily injections; cited from earlier work
compound,measurement,setting,value
CC(C)Cc1ccc(C(C)C(=O)O)cc1 (stereo not drawn) [Motrin],alleviation of the pain associated with the COPAXONE injection,[1]; oral pain management,ineffective
CCCCN1CCCCC1C(=O)Nc1c(C)cccc1C (stereo not drawn) [bupivacaine],inhibition of 5-HT induced plasma extravasation,[2],greater than 95%
copolymer-1,suppression of EAE,[3],suppress EAE
same,primary endpoint (reducing the annualized relapse rate relative to placebo),[4],met its primary endpoint
same,exacerbations and increases in disability status versus control patients,[5],fewer exacerbations and smaller increases in their disability status
same,pain / Site Reactions associated with the treatment,"[1]; human, in vivo","skin wheals, immediate pain upon injection and continuing post-injection pain"

# — patent US20140162958A1, “Copolymer-1 Composition and Methods of Use” (priority 2012, published 2014)
